Data on two molecules can be found in paper PMC7496286, “The Selectivity of Fosfosal for STAT5b over STAT5a is Mediated by Arg566 in the Linker Domain” (Chembiochem, 2020).

One assay concerns the target T1, STAT5b Met644Lys (Homo sapiens, UniProt P51692, M644K).
T1 construct: His; made in house
T1 sequence (P51692 1-787 M644K): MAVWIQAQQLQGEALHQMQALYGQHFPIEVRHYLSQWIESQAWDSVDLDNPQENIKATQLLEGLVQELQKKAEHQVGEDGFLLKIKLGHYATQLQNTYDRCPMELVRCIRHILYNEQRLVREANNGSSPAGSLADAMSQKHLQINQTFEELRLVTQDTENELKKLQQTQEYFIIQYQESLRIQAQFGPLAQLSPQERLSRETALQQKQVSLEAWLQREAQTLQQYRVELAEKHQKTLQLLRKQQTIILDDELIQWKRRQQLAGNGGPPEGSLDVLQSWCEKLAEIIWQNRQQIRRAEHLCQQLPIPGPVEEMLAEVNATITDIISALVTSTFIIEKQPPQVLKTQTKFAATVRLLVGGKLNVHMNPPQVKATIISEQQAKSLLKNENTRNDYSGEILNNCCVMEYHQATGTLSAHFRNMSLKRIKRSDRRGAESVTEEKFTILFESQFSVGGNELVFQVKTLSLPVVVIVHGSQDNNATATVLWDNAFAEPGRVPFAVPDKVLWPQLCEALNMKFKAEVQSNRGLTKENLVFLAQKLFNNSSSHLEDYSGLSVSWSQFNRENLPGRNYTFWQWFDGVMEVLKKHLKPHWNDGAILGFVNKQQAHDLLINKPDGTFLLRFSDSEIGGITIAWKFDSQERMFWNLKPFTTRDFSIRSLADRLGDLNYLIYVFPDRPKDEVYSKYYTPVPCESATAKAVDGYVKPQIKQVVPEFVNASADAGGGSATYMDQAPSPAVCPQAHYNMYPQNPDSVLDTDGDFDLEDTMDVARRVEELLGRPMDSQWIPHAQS
In words: FP-based competitive binding assay, STAT5b Met644Lys. The protocol:
(§1) Fluorescence polarization assays
(§2) The ability of test compounds to displace 5-carboxyfluorescein-GY(PO3H2)LVLDKW (final concentration: 10 nM) from the SH2 domain of STAT5a/b proteins was analyzed. Proteins […]
(§3) was applied in dilution series comprising the following concentrations: 0.024 – 200 µM […]
(§4) and 0.146 – 600 µM (STAT5b Arg566Glu), respectively. The assays were performed in buffer containing 10 mM Tris, 50 mM NaCl, 1 mM DTT, 1 mM EDTA and 0.1% (v/v) NP-40. Fosfosal was dissolved in DMSO. STAT5a/b proteins and fosfosal were incubated at room temperature for 1 h before adding peptide. Samples were transferred to 384-well microtiter plates and fluorescence polarization was read after a further 1 h incubation time. All measurements were performed in triplicate (n=3), except for STAT5b (n=6) and STAT5a Trp566Arg (n=4). Percent binding was calculated based on a logarithmic curve fit using OriginPro 8G software. IC50 values were converted to Ki values using the published equation.[4] […]
(§5) [4] Z. Nikolovska-Coleska, R. Wang, X. Fang, H. Pan, Y. Tomita, P. Li, P. P. Roller, K.
(§6) Krajewski, N. G. Saito, J. A. Stuckey, S. Wang, Anal. Biochem. 2004, 332, 261-273.

The target of assay [1] is T2, STAT5a Trp566Arg/Lys644Met (Homo sapiens, UniProt P42229, K644M/W566R).
T2 construct: His; made in house
T2 sequence (P42229 1-794 W566R/K644M): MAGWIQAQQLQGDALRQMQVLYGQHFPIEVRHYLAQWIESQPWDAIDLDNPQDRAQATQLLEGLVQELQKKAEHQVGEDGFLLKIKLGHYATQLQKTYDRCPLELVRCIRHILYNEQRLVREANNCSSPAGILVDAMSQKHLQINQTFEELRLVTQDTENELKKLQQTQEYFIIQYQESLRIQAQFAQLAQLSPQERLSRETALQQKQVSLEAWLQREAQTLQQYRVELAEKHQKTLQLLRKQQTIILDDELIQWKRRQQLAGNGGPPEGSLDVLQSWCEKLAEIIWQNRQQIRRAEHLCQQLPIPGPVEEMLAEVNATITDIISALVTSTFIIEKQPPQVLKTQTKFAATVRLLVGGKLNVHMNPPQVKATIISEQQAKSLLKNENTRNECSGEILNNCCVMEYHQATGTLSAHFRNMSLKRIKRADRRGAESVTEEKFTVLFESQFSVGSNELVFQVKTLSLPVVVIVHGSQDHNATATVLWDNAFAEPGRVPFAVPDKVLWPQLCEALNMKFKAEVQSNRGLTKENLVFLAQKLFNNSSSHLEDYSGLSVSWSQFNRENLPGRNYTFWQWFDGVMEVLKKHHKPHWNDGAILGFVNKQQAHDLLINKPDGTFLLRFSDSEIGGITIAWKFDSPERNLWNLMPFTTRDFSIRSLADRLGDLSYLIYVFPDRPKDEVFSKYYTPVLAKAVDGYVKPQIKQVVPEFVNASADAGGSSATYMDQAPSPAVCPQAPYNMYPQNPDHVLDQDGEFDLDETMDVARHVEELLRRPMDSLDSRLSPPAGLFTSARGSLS
Nature of the assay: FP-based competitive binding assay, STAT5a Trp566Arg/Lys644Met. Here is the method: as §1, §2, §3, §4, §5, §6

Usually Kd stands for the equilibrium constant for the complex coming apart. The low end stands for tighter binding, the high end for weaker binding. For the molecule `CC(C)C[C@H](NC(=O)[C@H](Cc1ccc(OP(=O)(O)O)cc1)NC(=O)CNC(=O)c1ccc2c(c1)C(=O)OC21c2ccc(O)cc2Oc2cc(O)ccc21)C(=O)N[C@H](C(=O)N[C@@H](CC(C)C)C(=O)N[C@@H](CC(=O)O)C(=O)N[C@@H](CCCCN)C(=O)N[C@@H](Cc1c[nH]c2ccccc12)C(=O)O)C(C)C` [5-carboxyfluorescein-GY(PO3H2)LVLDKW], the figures for the Kd (on STAT5b Met644Lys; in assay [1]) were 0.026 µM and 0.08 µM, respectively.

The term IC50 denotes the midpoint of a concentration-inhibition curve. High values mean weaker potency, low ones greater potency. Usually Ki stands for a measure of affinity in units of concentration, obtained from inhibition or displacement. `O=C(O)c1ccccc1OP(=O)(O)O` [fosfosal, O‐phosphorylated salicylic acid]: the IC50 was 36.6 ± 2 µM on STAT5b Met644Lys (STAT5b Met644Lys) and 24.5 ± 1.4 µM in assay [1] (STAT5a Trp566Arg/Lys644Met). Further, the inhibition constant Ki on STAT5b Met644Lys (STAT5b Met644Lys, Ki calculated from IC50) was 17.2 ± 0.9 µM; in assay [1] (STAT5a Trp566Arg/Lys644Met, Ki calculated from IC50), 12.3 ± 0.6 µM.
